Data taken from patent publication US20180022780A1, “STABILIZATION ADRENOMEDULLIN DERIVATIVES AND USE THEREOF” (priority 2014, published 2018).
Numbered stars: 1 amine (or outer) side, 2 acyl side, 3 side chain; on linkers, the order of the positions; unused ones are H or OH. Bridge positions count the residues as written; N and C are the ends. Square brackets hold non-standard residues; d marks the D form. Peptide text beside a SMILES is read from it. * marks the point of attachment. Abu(4-yl) = O=C([C@H](CC[*:3])N[*:1])[*:2]; Palmitoyl = CCCCCCCCCCCCCCCC(=O)*; NMeI = CC[C@H](C)[C@H](NC)C(=O)O; Orn = NCCC[C@H](N)C(=O)O

How the values were obtained:
[1] = biological target: T1, human adrenomedullin-receptor (Homo sapiens, UniProt O60895+Q16602); experiment: Tests on a recombinant adrenomedullin-receptor reporter cell (CHO, aequorin luminescence); assay type: cell-based; details: Table 1, CHO cell line carrying the human adrenomedullin-receptor
T1 construct: expressed in transfected cells; host or cells: CHO (Chinese hamster ovary) recombinant reporter cell line with aequorin
Description: Activation of the receptor by ligands was measured by aequorin luminescence. Construction of the cell line and measurement procedure has been described in detail [Wunder F., Rebmann A., Geerts A, and Kalthof B., Mol Pharmacol, 73, 1235-1243 (2008)]. In brief: Cells were seeded on opaque 384-well microtiter plates at a density of 4000 cells/well and were grown for 24 h. After removal of culture medium, cells were loaded for 3 h with 0.6 μg/ml coelenterazine in Ca^2+-free Tyrode solution (130 mM sodium chloride, 5 mM potassium chloride, 20 mM HEPES (4-(2-hydroxyethyl)-1-piperazineethanesulfonic acid), 1 mM magnesium chloride, and 4.8 mM sodium hydrogen carbonate, pH 7.4) supplemented with 0.2 mM 3-Isobutyl-1-methylxanthine (IBMX) in a cell culture incubator. Examples were added for 6 min in calcium^2+-free Tyrode solution containing 0.1% bovine serum albumin. Immediately before adding calcium^2+ to a final concentration of 3 mM measurement of the aequorin luminescence was started by use of a suitable luminometer. Luminescence was measured for 60 s. In a typical experiment compounds were tested in a concentration range of 1×10^−13 to 3×10^−6 M.

[2] = biological target: T2, CLR fused to EYFP and RAMP2 fused to ECFP (Homo sapiens, UniProt O60895+Q16602); experiment: cAMP assay (CRE luciferase reporter, HEK-293 cells transiently co-transfected with CLR and RAMP2); assay type: cell-based; details: Table 2, cAMP assay; HEK-293, CLR/RAMP2, CRE luciferase, 3 h stimulation, normalized to [G^14]ADM(14-52)
T2 construct: EYFP; ECFP; expressed in transfected cells; host or cells: HEK-293 cells, transient co-transfection
Method in brief: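 HEK-293 cells transiently co-transfected with CLR-EYFP, RAMP2-ECFP and a CRE-luc2P luciferase reporter were stimulated with ligands (eight concentrations, triplicate) for 3 h at 37 °C. Luminescence was corrected to 5 µM forskolin, normalized to [G^14]ADM(14-52) standard, and fitted by non-linear regression to dose-response curves.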

T1 sequence (Q16602 23-461): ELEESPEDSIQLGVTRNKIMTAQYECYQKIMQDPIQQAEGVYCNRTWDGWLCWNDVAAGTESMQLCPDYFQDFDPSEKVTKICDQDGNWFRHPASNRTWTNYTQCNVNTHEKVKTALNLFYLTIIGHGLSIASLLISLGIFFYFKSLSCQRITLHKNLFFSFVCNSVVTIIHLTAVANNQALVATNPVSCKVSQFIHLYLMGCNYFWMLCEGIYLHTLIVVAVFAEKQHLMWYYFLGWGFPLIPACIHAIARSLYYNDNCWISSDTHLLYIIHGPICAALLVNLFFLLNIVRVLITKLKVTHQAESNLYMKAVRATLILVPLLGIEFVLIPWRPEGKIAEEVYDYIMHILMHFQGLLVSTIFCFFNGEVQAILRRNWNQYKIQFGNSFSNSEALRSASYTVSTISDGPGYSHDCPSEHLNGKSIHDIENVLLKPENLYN
T1 sequence (O60895 43-175): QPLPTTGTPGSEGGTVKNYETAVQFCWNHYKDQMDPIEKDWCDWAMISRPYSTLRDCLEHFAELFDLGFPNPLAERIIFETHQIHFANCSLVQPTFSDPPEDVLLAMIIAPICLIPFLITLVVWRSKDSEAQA
T2 sequence (Q16602 23-461): as the sequence (Q16602 23-461) above
T2 sequence (O60895 43-175): as the sequence (O60895 43-175) above

EC50 [1] | EC50 [2] | SMILES
> 1000 nM | > 1000 nM | CC[C@H](C)[C@H](NC(=O)[C@H](CCC(N)=O)NC(=O)[C@H](Cc1c[nH]cn1)NC(=O)[C@H](C)NC(=O)[C@H](CC(C)C)NC(=O)[C@H](CCCCN)NC(=O)[C@H](CCC(N)=O)NC(=O)[C@@H](NC(=O)[C@@H](NC(=O)[C@@H]1CC(=O)NCCC[C@H](NC(=O)CNC(=O)CN)C(=O)N[C@@H](CCCNC(=N)N)C(=O)N[C@@H](Cc2ccccc2)C(=O)NCC(=O)N[C@@H]([C@@H](C)O)C(=O)N1)[C@@H](C)O)C(C)C)C(=O)N[C@@H](Cc1ccc(O)cc1)C(=O)N[C@@H](CCC(N)=O)C(=O)N[C@@H](Cc1ccccc1)C(=O)N[C@H](C(=O)N[C@@H](CC(=O)O)C(=O)N[C@@H](CCCCN)C(=O)N[C@@H](CC(=O)O)C(=O)N[C@@H](CCCCN)C(=O)N[C@@H](CC(=O)O)C(=O)N[C@@H](CC(N)=O)C(=O)N[C@H](C(=O)N[C@@H](C)C(=O)N1CCC[C@H]1C(=O)N[C@@H](CCCNC(=N)N)C(=O)N[C@@H](CO)C(=O)N[C@@H](CCCCN)C(=O)N[C@H](C(=O)N[C@@H](CO)C(=O)N1CCC[C@H]1C(=O)N[C@@H](CCC(N)=O)C(=O)NCC(=O)N[C@@H](Cc1ccc(O)cc1)C(N)=O)[C@@H](C)CC)C(C)C)[C@@H](C)O [Example 9, ((2S,5S,11S,14S,21S)-21-(2-(2-aminoacetamido)acetamido)-5-benzyl-2-(3-guanidinopropyl)-11-((R)-1-hydroxyethyl)-3,6,9,12,16,22-hexaoxo-1,4,7,10,13,17-hexaazacyclodocosane-14-carbonyl)-L-threonyl-ADM(22-52)] (H-GG[Orn]RFGTDTVQKLAHQIYQFTDKDKDNVAPRSKISPQGY-NH2; lactam 3-8)
> 1000 nM | 21 nM | CC[C@H](C)[C@H](NC(=O)[C@H](CCC(N)=O)NC(=O)[C@H](Cc1c[nH]cn1)NC(=O)[C@H](C)NC(=O)[C@H](CC(C)C)NC(=O)[C@H](CCCCN)NC(=O)[C@H](CCC(N)=O)NC(=O)[C@@H](NC(=O)[C@@H](NC(=O)[C@@H]1CCCNC(=O)CC[C@H](NC(=O)CNC(=O)CN)C(=O)N[C@@H](CCCNC(=N)N)C(=O)N[C@@H](Cc2ccccc2)C(=O)NCC(=O)N[C@@H]([C@@H](C)O)C(=O)N1)[C@@H](C)O)C(C)C)C(=O)N[C@@H](Cc1ccc(O)cc1)C(=O)N[C@@H](CCC(N)=O)C(=O)N[C@@H](Cc1ccccc1)C(=O)N[C@H](C(=O)N[C@@H](CC(=O)O)C(=O)N[C@@H](CCCCN)C(=O)N[C@@H](CC(=O)O)C(=O)N[C@@H](CCCCN)C(=O)N[C@@H](CC(=O)O)C(=O)N[C@@H](CC(N)=O)C(=O)N[C@H](C(=O)N[C@@H](C)C(=O)N1CCC[C@H]1C(=O)N[C@@H](CCCNC(=N)N)C(=O)N[C@@H](CO)C(=O)N[C@@H](CCCCN)C(=O)N[C@H](C(=O)N[C@@H](CO)C(=O)N1CCC[C@H]1C(=O)N[C@@H](CCC(N)=O)C(=O)NCC(=O)N[C@@H](Cc1ccc(O)cc1)C(N)=O)[C@@H](C)CC)C(C)C)[C@@H](C)O [Example 19, ((2S,5S,11S,14S,22S)-22-(2-(2-aminoacetamido)acetamido)-5-benzyl-2-(3-guanidinopropyl)-11-((R)-1-hydroxyethyl)-3,6,9,12,19,23-hexaoxo-1,4,7,10,13,18-hexaazacyclotricosane-14-carbonyl)-L-threonyl-ADM(22-52)] (H-GGERFGT[Orn]TVQKLAHQIYQFTDKDKDNVAPRSKISPQGY-NH2; lactam 3-8)
15 nM | 2.3 nM | CC[C@H](C)[C@H](NC(=O)[C@H](CCC(N)=O)NC(=O)[C@H](Cc1c[nH]cn1)NC(=O)[C@H](C)NC(=O)[C@H](CC(C)C)NC(=O)[C@H](CCCCN)NC(=O)[C@H](CCC(N)=O)NC(=O)[C@@H](NC(=O)[C@@H](NC(=O)[C@@H]1CCCCNC(=O)C[C@H](NC(=O)CNC(=O)CN)C(=O)N[C@@H](CCCNC(=N)N)C(=O)N[C@@H](Cc2ccccc2)C(=O)NCC(=O)N[C@@H]([C@@H](C)O)C(=O)N1)[C@@H](C)O)C(C)C)C(=O)N[C@@H](Cc1ccc(O)cc1)C(=O)N[C@@H](CCC(N)=O)C(=O)N[C@@H](Cc1ccccc1)C(=O)N[C@H](C(=O)N[C@@H](CC(=O)O)C(=O)N[C@@H](CCCCN)C(=O)N[C@@H](CC(=O)O)C(=O)N[C@@H](CCCCN)C(=O)N[C@@H](CC(=O)O)C(=O)N[C@@H](CC(N)=O)C(=O)N[C@H](C(=O)N[C@@H](C)C(=O)N1CCC[C@H]1C(=O)N[C@@H](CCCNC(=N)N)C(=O)N[C@@H](CO)C(=O)N[C@@H](CCCCN)C(=O)N[C@H](C(=O)N[C@@H](CO)C(=O)N1CCC[C@H]1C(=O)N[C@@H](CCC(N)=O)C(=O)NCC(=O)N[C@@H](Cc1ccc(O)cc1)C(N)=O)[C@@H](C)CC)C(C)C)[C@@H](C)O [Example 22, ((3S,9S,12S,15S,23S)-15-(2-(2-aminoacetamido)acetamido)-9-benzyl-12-(3-guanidinopropyl)-3-((R)-1-hydroxyethyl)-2,5,8,11,14,17-hexaoxo-1,4,7,10,13,18-hexaazacyclotricosane-23-carbonyl)-L-threonyl-ADM(22-52)] (H-GGDRFGTKTVQKLAHQIYQFTDKDKDNVAPRSKISPQGY-NH2; lactam 3-8)
32 nM | 150 nM | CCCCCCCCCCCCCCCC(=O)NCCCC[C@H](N)C(=O)NCC(=O)N[C@H]1CCC(=O)NCCCC[C@@H](C(=O)N[C@H](C(=O)N[C@H](C(=O)N[C@@H](CCC(N)=O)C(=O)N[C@@H](CCCCN)C(=O)N[C@@H](CC(C)C)C(=O)N[C@@H](C)C(=O)N[C@@H](Cc2c[nH]cn2)C(=O)N[C@@H](CCC(N)=O)C(=O)N[C@H](C(=O)N[C@@H](Cc2ccc(O)cc2)C(=O)N[C@@H](CCC(N)=O)C(=O)N[C@@H](Cc2ccccc2)C(=O)N[C@H](C(=O)N[C@@H](CC(=O)O)C(=O)N[C@@H](CCCCN)C(=O)N[C@@H](CC(=O)O)C(=O)N[C@@H](CCCCN)C(=O)N[C@@H](CC(=O)O)C(=O)N[C@@H](CC(N)=O)C(=O)N[C@H](C(=O)N[C@@H](C)C(=O)N2CCC[C@H]2C(=O)N[C@@H](CCCNC(=N)N)C(=O)N[C@@H](CO)C(=O)N[C@@H](CCCCN)C(=O)N(C)[C@H](C(=O)N[C@@H](CO)C(=O)N2CCC[C@H]2C(=O)N[C@@H](CCC(N)=O)C(=O)NCC(=O)N[C@@H](Cc2ccc(O)cc2)C(N)=O)[C@@H](C)CC)C(C)C)[C@@H](C)O)[C@@H](C)CC)C(C)C)[C@@H](C)O)NC(=O)[C@H]([C@@H](C)O)NC(=O)CNC(=O)[C@H](Cc2ccccc2)NC(=O)[C@H](CCCNC(=N)N)NC1=O [Example 14, ((2S,5S,11S,14S,23S)-23-(2-((S)-2-amino-6-palmitamidohexanamido)acetamido)-5-benzyl-2-(3-guanidinopropyl)-11-((R)-1-hydroxyethyl)-3,6,9,12,20,24-hexaoxo-1,4,7,10,13,19-hexaazacyclotetracosane-14-carbonyl)-L-threonyl-[N-Me-I^47]ADM(22-52)] (H-K(Palmitoyl)GERFGTKTVQKLAHQIYQFTDKDKDNVAPRSK[NMeI]SPQGY-NH2; lactam 3-8)
– | 6.8 nM | CC[C@H](C)[C@H](NC(=O)[C@H](CCC(N)=O)NC(=O)[C@H](Cc1c[nH]cn1)NC(=O)[C@H](C)NC(=O)[C@H](CC(C)C)NC(=O)[C@H](CCCCN)NC(=O)[C@H](CCC(N)=O)NC(=O)[C@@H](NC(=O)[C@@H](NC(=O)[C@@H]1CSCC[C@H](NC(=O)CNC(=O)CN)C(=O)N[C@@H](CCCNC(=N)N)C(=O)N[C@@H](Cc2ccccc2)C(=O)NCC(=O)N[C@@H]([C@@H](C)O)C(=O)N1)[C@@H](C)O)C(C)C)C(=O)N[C@@H](Cc1ccc(O)cc1)C(=O)N[C@@H](CCC(N)=O)C(=O)N[C@@H](Cc1ccccc1)C(=O)N[C@H](C(=O)N[C@@H](CC(=O)O)C(=O)N[C@@H](CCCCN)C(=O)N[C@@H](CC(=O)O)C(=O)N[C@@H](CCCCN)C(=O)N[C@@H](CC(=O)O)C(=O)N[C@@H](CC(N)=O)C(=O)N[C@H](C(=O)N[C@@H](C)C(=O)N1CCC[C@H]1C(=O)N[C@@H](CCCNC(=N)N)C(=O)N[C@@H](CO)C(=O)N[C@@H](CCCCN)C(=O)N[C@H](C(=O)N[C@@H](CO)C(=O)N1CCC[C@H]1C(=O)N[C@@H](CCC(N)=O)C(=O)NCC(=O)N[C@@H](Cc1ccc(O)cc1)C(N)=O)[C@@H](C)CC)C(C)C)[C@@H](C)O [Example 16, ((3R,6S,12S,15S,18S)-18-(2-(2-aminoacetamido)acetamido)-12-benzyl-15-(3-guanidinopropyl)-6-((R)-1-hydroxyethyl)-5,8,11,14,17-pentaoxo-1-thia-4,7,10,13,16-pentaazacycloicosane-3-carbonyl)-L-threonyl-ADM(22-52)] (H-GG[Abu(4-yl)]RFGTCTVQKLAHQIYQFTDKDKDNVAPRSKISPQGY-NH2; thioether 3-8)
